Assay results reported in patent publication US12029739B2, “SHP2 inhibitor and use thereof” (KANAPH THERAPEUTICS INC., priority 2021, dated 2024).
pIC50: −log10 of the molar value.

Tests used:
SHP2 (full length) = target: T1, SHP2 (full length) (Homo sapiens, UniProt Q06124); test: Phosphatase assay (PTPase assay) with DiFMUP substrate; format: biochemical; settings: SHP2 activated with SHP2 activating peptide; DiFMUP 80 μM, 2 hours; fluorescence; read-out: IC50 (PTPase aS say)
T1 construct: SHP2 (full length, diluted to 100 pM final concentration in reaction buffer, BPS bioscience, US); purchased BPS bioscience, US
T1 sequence (Q06124 1-593): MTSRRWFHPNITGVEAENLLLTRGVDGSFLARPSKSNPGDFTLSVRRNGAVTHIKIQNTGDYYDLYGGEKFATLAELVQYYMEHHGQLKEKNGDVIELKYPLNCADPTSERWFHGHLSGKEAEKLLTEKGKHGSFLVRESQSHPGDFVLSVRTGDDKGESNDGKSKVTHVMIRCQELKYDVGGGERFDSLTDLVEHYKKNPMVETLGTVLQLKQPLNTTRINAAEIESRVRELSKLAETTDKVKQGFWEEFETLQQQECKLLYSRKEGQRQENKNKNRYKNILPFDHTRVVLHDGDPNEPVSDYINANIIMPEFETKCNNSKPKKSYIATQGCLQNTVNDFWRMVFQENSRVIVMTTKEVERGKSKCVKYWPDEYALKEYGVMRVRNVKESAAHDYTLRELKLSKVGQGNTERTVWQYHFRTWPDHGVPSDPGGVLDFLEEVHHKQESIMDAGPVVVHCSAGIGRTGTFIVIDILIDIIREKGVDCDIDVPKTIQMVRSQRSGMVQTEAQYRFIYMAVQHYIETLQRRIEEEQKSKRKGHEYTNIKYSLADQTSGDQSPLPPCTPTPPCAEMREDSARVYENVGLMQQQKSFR

[1] = tested on: phospho-ERK in MIA PaCa2 or H358 cells; test: Phospho-ERK assay (AlphaLisa); format: cell-based; settings: 1.5 h, MIA PaCa2 or H358 cells, compound incubated 1.5 hours; read-out: IC50 (p-ERK)

SMILES | pIC50 (SHP2 (full length)) | pIC50 [1]
C[C@@H]1OCC2(CCN(c3cnc(Sc4ccc5ncn(CCCO)c(=O)c5c4Cl)cn3)CC2)[C@@H]1N [Example 63, 6-((5-((3S,4S)-4-amino-3-methyl-2-oxa-8-azaspiro[4.5]decan-8-yl)pyrazin-2-yl)thio)-5-chloro-3-(3-hydroxypropyl)quinazolin-4(3H)-one] | > 8.52 | > 7.35
COCCn1cnc2ccc(Sc3cnc(N4CCC5(CC4)CO[C@@H](C)[C@H]5N)cn3)c(Cl)c2c1=O [Example 64, 6-((5-((3S,4S)-4-amino-3-methyl-2-oxa-8-azaspiro[4.5]decan-8-yl)pyrazin-2-yl)thio)-5-chloro-3-(2-methoxyethyl)quinazolin-4(3H)-one] | > 8.52 | > 7.35
C[C@@H]1OCC2(CCN(c3cnc(Sc4ccc5ncn(CCN(C)C)c(=O)c5c4Cl)cn3)CC2)[C@@H]1N [Example 67, 6-((5-((3S,4S)-4-amino-3-methyl-2-oxa-8-azaspiro[4.5]decan-8-yl)pyrazin-2-yl)thio)-5-chloro-3-(2-(dimethylamino)ethyl)quinazolin-4(3H)-one] | 7.00 to 8.52 | 5.82 to 7.35
Cc1ccc(Cn2cnc3ccc(Sc4cnc(N5CCC6(CC5)CO[C@@H](C)[C@H]6N)cn4)c(Cl)c3c2=O)c(F)c1 [Example 69, 6-((5-((3S,4S)-4-amino-3-methyl-2-oxa-8-azaspiro[4.5]decan-8-yl)pyrazin-2-yl)thio)-5-chloro-3-(2-fluoro-4-methylbenzyl)quinazolin-4(3H)-one] | > 8.52 | > 7.35
COc1cccc(Cn2cnc3ccc(Sc4cnc(N5CCC6(CC5)CO[C@@H](C)[C@H]6N)cn4)c(Cl)c3c2=O)c1F [Example 70, 6-((5-((3S,4S)-4-amino-3-methyl-2-oxa-8-azaspiro[4.5]decan-8-yl)pyrazin-2-yl)thio)-5-chloro-3-(2-fluoro-3-methoxybenzyl)quinazolin-4(3H)-one] | > 8.52 | > 7.35

Continued, values first:

pIC50 (SHP2 (full length)) | pIC50 [1] | SMILES
> 8.52 | > 7.35 | C[C@@H]1OCC2(CCN(c3cnc(Sc4ccc5ncn(CC6CCOCC6)c(=O)c5c4Cl)cn3)CC2)[C@@H]1N [Example 65, 6-((5-((3S,4S)-4-amino-3-methyl-2-oxa-8-azaspiro[4.5]decan-8-yl)pyrazin-2-yl)thio)-5-chloro-3-((tetrahydro-2H-pyran-4-yl)methyl)quinazolin-4(3H)-one]
> 8.52 | > 7.35 | C[C@@H]1OCC2(CCN(c3cnc(Sc4ccc5ncn(Cc6cccc(O)c6)c(=O)c5c4Cl)cn3)CC2)[C@@H]1N [Example 66, 6-((5-((3S,4S)-4-amino-3-methyl-2-oxa-8-azaspiro[4.5]decan-8-yl)pyrazin-2-yl)thio)-5-chloro-3-(3-hydroxybenzyl)quinazolin-4(3H)-one]
7.00 to 8.52 | 5.82 to 7.35 | C[C@@H]1OCC2(CCN(c3cnc(Sc4ccc5ncn(CCCN(C)C)c(=O)c5c4Cl)cn3)CC2)[C@@H]1N [Example 68, 6-((5-((3S,4S)-4-amino-3-methyl-2-oxa-8-azaspiro[4.5]decan-8-yl)pyrazin-2-yl)thio)-5-chloro-3-(3-(dimethylamino)propyl)quinazolin-4(3H)-one]
> 8.52 | > 7.35 | C[C@@H]1OCC2(CCN(c3cnc(Sc4ccc5ncn(Cc6ccnc(C#N)c6)c(=O)c5c4Cl)cn3)CC2)[C@@H]1N [Example 71, 4-((6-((5-((3S,4S)-4-amino-3-methyl-2-oxa-8-azaspiro[4.5]decan-8-yl)pyrazin-2-yl)thio)-5-chloro-4-oxoquinazolin-3(4H)-yl)methyl)picolinonitrile]
> 8.52 | > 7.35 | COc1ccc(Cn2cnc3ccc(Sc4cnc(N5CCC6(CC5)CO[C@@H](C)[C@H]6N)cn4)c(Cl)c3c2=O)c(F)c1 [Example 72, 6-((5-((3S,4S)-4-amino-3-methyl-2-oxa-8-azaspiro[4.5]decan-8-yl)pyrazin-2-yl)thio)-5-chloro-3-(2-fluoro-4-methoxybenzyl)quinazolin-4(3H)-one]
